Molecules are shown by their SMILES.

Common to all, as to test: KINOMEscan
Holding throughout (type): binding
What all share (details): read-out: Percent Control

For one test, the target named is T1, YANK2 (Homo sapiens, UniProt Q9NY57).
T1 construct: purchased Eurofins (KINOMEscan, DiscoverX)

The target of the next test is T2, TAK1 (Homo sapiens, UniProt O43318).
T2 construct: purchased Eurofins DiscoverX KINOMEscan (scanMAX 468)

Another test has as its target T3, KIT-autoinhibited (Homo sapiens, UniProt P10721).
T3 construct: purchased Eurofins DiscoverX KINOMEscan (scanMAX 468)

For another test, the target named is T4, IKK-epsilon (Homo sapiens, UniProt Q14164).
T4 construct: purchased Eurofins DiscoverX KINOMEscan (scanMAX 468)
T4 sequence (Q14164 whole entry): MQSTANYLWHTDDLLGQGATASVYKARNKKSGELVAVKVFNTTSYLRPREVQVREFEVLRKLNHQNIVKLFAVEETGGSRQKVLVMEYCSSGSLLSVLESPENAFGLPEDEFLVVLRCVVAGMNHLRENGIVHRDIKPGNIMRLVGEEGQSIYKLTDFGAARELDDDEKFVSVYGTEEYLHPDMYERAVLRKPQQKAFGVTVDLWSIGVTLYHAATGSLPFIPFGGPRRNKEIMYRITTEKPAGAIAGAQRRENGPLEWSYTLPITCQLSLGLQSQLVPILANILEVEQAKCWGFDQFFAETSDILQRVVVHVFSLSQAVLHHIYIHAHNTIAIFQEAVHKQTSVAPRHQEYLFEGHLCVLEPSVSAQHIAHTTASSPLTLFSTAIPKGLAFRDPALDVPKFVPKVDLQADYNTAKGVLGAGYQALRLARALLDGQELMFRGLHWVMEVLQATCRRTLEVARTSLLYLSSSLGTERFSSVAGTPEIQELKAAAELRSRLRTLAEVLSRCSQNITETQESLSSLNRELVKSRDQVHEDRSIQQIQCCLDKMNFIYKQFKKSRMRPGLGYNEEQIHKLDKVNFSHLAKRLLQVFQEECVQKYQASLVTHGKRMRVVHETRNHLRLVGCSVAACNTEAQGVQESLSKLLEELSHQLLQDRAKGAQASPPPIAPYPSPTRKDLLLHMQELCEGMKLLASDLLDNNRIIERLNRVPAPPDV

T3 sequence (P10721 26-976): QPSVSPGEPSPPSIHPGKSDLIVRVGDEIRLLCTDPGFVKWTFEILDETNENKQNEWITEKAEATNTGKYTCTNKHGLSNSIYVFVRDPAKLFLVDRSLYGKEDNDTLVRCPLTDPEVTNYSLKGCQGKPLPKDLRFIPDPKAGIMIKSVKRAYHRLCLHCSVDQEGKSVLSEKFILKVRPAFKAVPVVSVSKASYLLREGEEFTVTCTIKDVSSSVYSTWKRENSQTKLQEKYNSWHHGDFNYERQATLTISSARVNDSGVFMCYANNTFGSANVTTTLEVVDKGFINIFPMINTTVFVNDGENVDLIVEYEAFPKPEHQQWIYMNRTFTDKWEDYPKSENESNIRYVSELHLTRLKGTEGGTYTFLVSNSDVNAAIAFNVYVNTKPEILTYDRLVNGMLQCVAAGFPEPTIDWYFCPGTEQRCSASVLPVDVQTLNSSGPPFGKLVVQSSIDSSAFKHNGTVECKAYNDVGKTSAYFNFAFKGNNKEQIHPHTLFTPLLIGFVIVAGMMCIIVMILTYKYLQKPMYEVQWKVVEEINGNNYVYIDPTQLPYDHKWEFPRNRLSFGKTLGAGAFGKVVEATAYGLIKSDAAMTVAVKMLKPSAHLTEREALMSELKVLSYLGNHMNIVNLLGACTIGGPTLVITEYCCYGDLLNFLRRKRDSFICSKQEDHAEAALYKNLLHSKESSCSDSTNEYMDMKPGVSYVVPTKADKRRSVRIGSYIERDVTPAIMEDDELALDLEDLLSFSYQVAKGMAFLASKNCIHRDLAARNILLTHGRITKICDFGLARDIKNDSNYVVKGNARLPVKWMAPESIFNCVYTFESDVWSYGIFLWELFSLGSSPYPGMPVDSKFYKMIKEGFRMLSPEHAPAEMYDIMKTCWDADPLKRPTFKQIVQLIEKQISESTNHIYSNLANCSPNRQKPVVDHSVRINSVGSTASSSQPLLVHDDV
T1 sequence (Q9NY57 whole entry): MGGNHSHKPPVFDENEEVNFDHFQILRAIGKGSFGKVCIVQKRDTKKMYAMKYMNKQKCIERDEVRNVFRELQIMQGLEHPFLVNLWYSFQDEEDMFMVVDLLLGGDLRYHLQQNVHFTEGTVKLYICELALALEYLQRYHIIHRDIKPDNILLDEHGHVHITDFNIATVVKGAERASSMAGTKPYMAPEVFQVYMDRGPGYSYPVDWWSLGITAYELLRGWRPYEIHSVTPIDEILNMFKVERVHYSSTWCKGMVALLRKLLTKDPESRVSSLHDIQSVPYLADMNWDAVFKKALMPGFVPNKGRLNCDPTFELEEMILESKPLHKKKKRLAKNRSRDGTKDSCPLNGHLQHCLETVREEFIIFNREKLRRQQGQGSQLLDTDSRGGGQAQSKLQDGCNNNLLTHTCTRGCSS
T2 sequence (O43318 whole entry): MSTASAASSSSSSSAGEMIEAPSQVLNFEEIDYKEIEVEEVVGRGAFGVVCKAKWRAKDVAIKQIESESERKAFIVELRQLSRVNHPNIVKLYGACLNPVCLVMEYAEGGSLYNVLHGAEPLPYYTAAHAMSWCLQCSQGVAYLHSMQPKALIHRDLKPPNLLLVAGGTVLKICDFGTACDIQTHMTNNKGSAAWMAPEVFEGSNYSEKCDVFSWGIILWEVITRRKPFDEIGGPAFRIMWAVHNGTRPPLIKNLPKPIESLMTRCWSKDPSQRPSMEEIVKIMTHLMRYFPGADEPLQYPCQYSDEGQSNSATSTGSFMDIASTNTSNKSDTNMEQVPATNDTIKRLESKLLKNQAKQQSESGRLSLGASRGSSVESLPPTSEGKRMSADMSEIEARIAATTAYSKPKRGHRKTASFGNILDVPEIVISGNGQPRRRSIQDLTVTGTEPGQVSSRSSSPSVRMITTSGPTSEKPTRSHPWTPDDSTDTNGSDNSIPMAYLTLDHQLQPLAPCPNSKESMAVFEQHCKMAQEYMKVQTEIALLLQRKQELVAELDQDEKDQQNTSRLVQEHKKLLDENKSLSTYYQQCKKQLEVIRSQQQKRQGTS

For `Cc1ccc(-n2cc(COc3cccc4cnc(Nc5cccc(Cl)c5)nc34)nn2)c([N+](=O)[O-])c1` [DB18], the remaining binding at 1 µM on YANK2 came out at 100%; on TAK1, 100%; at KIT-autoinhibited it was 97%; on IKK-epsilon it was 96%.

Values taken from PMC9571063 (Molecules, 2022).
